Measurements published in PubChem BioAssay (NCI).
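The compound was tested at five concentrations on cells cultured in 96-well plates, with a 48-hour exposure period. Abbreviation: GI50, concentration required for 50% inhibition of growth. At the TGI there is no net growth.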

Experiments:
Experiment in all cases: growth of human tumour cells (NCI), 48 h
[1] = test system: HL-60(TB) leukemia
[2] = test system: RPMI-8226 leukemia
[3] = test system: SN12C renal
[4] = test system: MDA-MB-468 breast
[5] = test system: 786-0 renal
[6] = test system: SK-MEL-28 melanoma
[7] = test system: EKVX NSCLC
[8] = test system: A498 renal
[9] = test system: A549 NSCLC
[10] = test system: SK-MEL-2 melanoma
[11] = test system: OVCAR-4 ovarian
[12] = test system: NCI-H460 lung
[13] = test system: HCT-116 colon
[14] = test system: NCI/ADR-RES ovarian
[15] = test system: SF-268 CNS
[16] = test system: IGROV1 ovarian
[17] = test system: MOLT-4 leukemia
[18] = test system: NCI-H23 lung
[19] = test system: OVCAR-5 ovarian
[20] = test system: MDA-MB-435
[21] = test system: SNB-19 CNS
[22] = test system: HT29 colon
[23] = test system: M14 melanoma
[24] = test system: SK-OV-3 ovarian
[25] = test system: U251 CNS
[26] = test system: CAKI-1 renal
[27] = test system: SNB-75 CNS
[28] = test system: ACHN renal
[29] = test system: K-562 leukemia
[30] = test system: BT-549 breast
[31] = test system: SW-620 colon
[32] = test system: LOX IMVI melanoma
[33] = test system: SR leukemia
[34] = test system: CCRF-CEM leukemia
[35] = test system: SF-295 CNS
[36] = test system: SK-MEL-5 melanoma
[37] = test system: UACC-62 melanoma
[38] = test system: HOP-92 NSCLC
[39] = test system: MCF7 breast
[40] = test system: MDA-MB-231 breast
[41] = test system: OVCAR-3 ovarian
[42] = test system: HS 578T breast
[43] = test system: DU-145 prostate
[44] = test system: OVCAR-8 ovarian
[45] = test system: NCI-H522 lung
[46] = test system: HCC-2998 colon
[47] = test system: KM12 colon
[48] = test system: SF-539 CNS
[49] = test system: UACC-257 melanoma
[50] = test system: NCI-H226 lung
[51] = test system: MALME-3M melanoma

## CCCn1cc(-c2nc(Nc3ccc(C(=O)NCCCCNc4cccc5c4C(=O)N(C4CCC(=O)NC4=O)C5=O)cc3)nc3[nH]ccc23)cn1 (stereo not given)
[1]
  GI50: < 10 nM
  TGI: 516 nM
[2]
  GI50: 157 nM
  TGI: > 100000 nM
[3]
  GI50: 16.6 nM
  TGI: > 100000 nM
[4]
  GI50: < 10 nM
  TGI: < 10 nM
[5]
  GI50: 136 nM
  TGI: > 100000 nM
[6]
  GI50: 123 nM
  TGI: > 100000 nM
[7]
  TGI: > 100000 nM
[8]
  GI50: 157 nM
  TGI: > 100000 nM
[9]
  GI50: 119 nM
  TGI: > 100000 nM
[10]
  GI50: 53.6 nM
  TGI: > 100000 nM
[11]
  GI50: 35.4 nM
  TGI: > 100000 nM
[12]
  GI50: > 100000 nM
  TGI: > 100000 nM
[13]
  GI50: 27400 nM
  TGI: > 100000 nM
[14]
  GI50: > 100000 nM
  TGI: > 100000 nM
[15]
  GI50: 25.7 nM
  TGI: > 100000 nM
[16]
  GI50: 11.7 nM
  TGI: > 100000 nM
[17]
  GI50: < 10 nM
[18]
  GI50: 18600 nM
  TGI: > 100000 nM
[19]
  GI50: 243 nM
  TGI: > 100000 nM
[20]
  GI50: 68.6 nM
  TGI: > 100000 nM
[21]
  GI50: < 12.4 nM
  TGI: > 100000 nM
[22]
  GI50: 166 nM
  TGI: > 100000 nM
[23]
  GI50: 81.7 nM
  TGI: > 100000 nM
[24]
  GI50: 425 nM
  TGI: > 100000 nM
[25]
  GI50: 589 nM
  TGI: > 100000 nM
[26]
  GI50: 190 nM
  TGI: > 100000 nM
[27]
  GI50: < 10 nM
  TGI: 2060 nM
[28]
  GI50: > 100000 nM
  TGI: > 100000 nM
[29]
  GI50: 36.8 nM
  TGI: > 100000 nM
[30]
  GI50: < 10 nM
  TGI: < 10 nM
[31]
  GI50: < 10 nM
  TGI: > 100000 nM
[32]
  GI50: > 100000 nM
  TGI: > 100000 nM
[33]
  GI50: 319 nM
  TGI: > 100000 nM
[34]
  GI50: < 10 nM
  TGI: < 10 nM
[35]
  GI50: 209 nM
  TGI: > 100000 nM
[36]
  GI50: 30 nM
  TGI: 188 nM
[37]
  GI50: > 100000 nM
  TGI: > 100000 nM
[38]
  GI50: < 10 nM
  TGI: < 10 nM
[39]
  GI50: 33.9 nM
  TGI: > 100000 nM
[40]
  GI50: < 10 nM
  TGI: < 10 nM
[41]
  GI50: 424 nM
  TGI: > 100000 nM
[42]
  GI50: < 10 nM
  TGI: > 100000 nM
[43]
  GI50: > 100000 nM
  TGI: > 100000 nM
[44]
  GI50: < 10 nM
  TGI: > 100000 nM
[45]
  GI50: > 100000 nM
  TGI: > 100000 nM
[46]
  GI50: < 10 nM
  TGI: > 100000 nM
[47]
  GI50: 37.4 nM
  TGI: > 100000 nM
[48]
  GI50: 67.6 nM
  TGI: > 100000 nM
[49]
  GI50: > 100000 nM
  TGI: > 100000 nM
[50]
  GI50: 31.9 nM
  TGI: > 100000 nM
[51]
  GI50: < 10 nM
  TGI: < 10 nM
